For one assay, the target named is human FPR2 (Homo sapiens (Human), UniProt P25090). In words: FPR2 cyclic adenosine monophosphate (cAMP) assay. The class given is cell-based. The conditions noted are these: CHO cells overexpressing human FPR2; forskolin 5 µM; inhibition of cAMP production; read-out: hFPR2 cAMP2 EC50. The essentials:
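Inhibition of forskolin-driven (5 µM) cAMP, with 200 µM IBMX, measured in human FPR2-expressing CHO cells, 2,000 per well, 30 min at room temperature; compounds tested 0.020 nM to 100 µM in 1% DMSO. HTRF 665/590 ratio converted to cAMP via calibration curve, then 4-parameter fit.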

For the next assay, the target named is human FPR1 (Homo sapiens (Human), UniProt P21462). In words: FPR1 cyclic adenosine monophosphate (cAMP) assay. The class given is cell-based. Conditions: CHO cells overexpressing human FPR1; forskolin 10 µM; inhibition of cAMP production; read-out: hFPR1 cAMP EC50. The essentials: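 Human FPR1-expressing CHO cells were used at 4,000 per well, with compound at 0.020 nM–100 µM in 1% DMSO. Potency came from a 4-parameter logistic fit.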
In general terms: Changes in cAMP serve as a functional read-out for many G protein-coupled receptors.

Molecules are shown by their SMILES. Bounds are passed on as bounds.

EC50 data for 43 compounds are collected here from US20230348426A1, “OXOPYRROLIDINE FPR2 AGONISTS” (Bristol-Myers Squibb Company, priority 2020, published 2023).

Chain of human FPR1 (P21462 whole entry): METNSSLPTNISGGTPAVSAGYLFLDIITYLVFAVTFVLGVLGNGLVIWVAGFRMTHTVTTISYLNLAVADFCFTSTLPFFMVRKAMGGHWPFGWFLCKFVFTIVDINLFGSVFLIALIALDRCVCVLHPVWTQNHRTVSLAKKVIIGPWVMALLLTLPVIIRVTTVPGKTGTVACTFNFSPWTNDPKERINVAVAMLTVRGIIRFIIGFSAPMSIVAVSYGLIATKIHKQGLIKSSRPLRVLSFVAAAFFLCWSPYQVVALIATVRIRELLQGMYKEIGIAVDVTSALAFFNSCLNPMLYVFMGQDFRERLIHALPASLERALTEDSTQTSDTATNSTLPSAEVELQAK
Chain of human FPR2 (P25090 whole entry): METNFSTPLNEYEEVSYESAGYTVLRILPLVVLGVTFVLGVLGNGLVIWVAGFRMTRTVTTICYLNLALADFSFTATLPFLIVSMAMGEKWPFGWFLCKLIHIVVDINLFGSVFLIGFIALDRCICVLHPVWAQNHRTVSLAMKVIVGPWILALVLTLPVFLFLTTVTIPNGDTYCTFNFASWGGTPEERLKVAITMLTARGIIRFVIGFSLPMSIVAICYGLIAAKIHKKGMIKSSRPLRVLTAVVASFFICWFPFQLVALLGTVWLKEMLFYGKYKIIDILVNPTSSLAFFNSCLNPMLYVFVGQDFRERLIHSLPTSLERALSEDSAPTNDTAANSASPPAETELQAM

Take `COc1cc(F)c([C@@H]2CN(c3c(C)ccn(C4CCOC4)c3=O)C(=O)[C@H]2NC(=O)c2ccc(Cl)cc2)c(F)c1` (some centres unmarked) [Example 654]: the values for the EC50 on human FPR2 and at human FPR1 were 1 nM and 12 nM, respectively.
On to `COc1cc(F)c([C@@H]2CN(c3c(C)ccn(C4CCOC4)c3=O)C(=O)[C@H]2NC(=O)c2ccc(OC(F)(F)F)cc2)c(F)c1` (some centres unmarked) [Example 655], for which the EC50 – broadly, the concentration giving half of the maximal effect – on human FPR2 was determined as 3.8 nM; at human FPR1 it was 1.2 nM.
`COc1ccc([C@@H]2CN(c3cccn(CC(O)C(F)(F)F)c3=O)C(=O)[C@H]2NC(=O)c2ccc(OC(F)(F)F)cc2)cc1` (some centres unmarked) [Example 656]: the EC50 on human FPR2 was determined as 2.5 nM; on human FPR1, 13 nM.
`COc1ccc([C@@H]2CN(c3cccn(CC(O)C(F)(F)F)c3=O)C(=O)[C@H]2NC(=O)c2ccc(OC(F)(F)F)cc2)cc1` (some centres unmarked) [Example 657]: the 50% effective concentration (EC50) on human FPR2 worked out at 2 nM; on human FPR1, 45 nM.
Consider `COCCn1ncc(C)c(N2C[C@@H](c3c(F)cc(OC)cc3F)[C@H](NC(=O)c3ccc(OC(F)F)cc3)C2=O)c1=O` [Example 658], for which the half-maximal effective concentration (EC50) at human FPR2 amounted to 3.4 nM; on human FPR1, 1.7 nM.
The like results for `COc1cc(F)c([C@@H]2CN(c3c(C)ccn(C(F)(F)CO)c3=O)C(=O)[C@H]2NC(=O)c2ccc(OC(F)(F)F)cc2)c(F)c1` [Example 659] were, in that order, 1 nM and 1.3 nM.
Consider `COc1cc(F)c([C@@H]2CN(c3ccn(CC(F)F)n3)C(=O)[C@H]2NC(=O)c2ccc(OC(F)F)cc2)c(F)c1` [Example 661], for which the results for the EC50 at human FPR2 and on human FPR1 were 1.2 nM and 110 nM, respectively.
On to `COc1cc(F)c([C@@H]2CN(c3ccn(CC(F)F)n3)C(=O)[C@H]2NC(=O)c2ccc(OC(F)(F)F)cc2)c(F)c1` [Example 662], for which the values for the EC50 on human FPR2 and at human FPR1 were 4 nM and 14 nM, respectively.
Regarding `CCn1cc2c(c(N3C[C@@H](c4c(F)cc(OC)cc4F)[C@H](NC(=O)c4ccc(OC(F)F)cc4)C3=O)c1=O)CCCC2` [Example 663], the concentration for a half-maximal effect (EC50) was 1.1 nM at human FPR2 and 1700 nM on human FPR1.
On the same counts, the results for `CCn1cc2c(c(N3C[C@@H](c4c(F)cc(OC)cc4F)[C@@H](NC(=O)c4ccc(OC(F)F)cc4)C3=O)c1=O)CCCC2` [Example 664] are 8.7 nM and 190 nM.
On to `COc1cc(F)c([C@@H]2CN(c3c(C)ccn(CC4CNC(=O)O4)c3=O)C(=O)[C@H]2NC(=O)c2ccc(OC(F)F)cc2)c(F)c1` (some centres unmarked) [Example 665], for which the EC50 at human FPR2 was under 10 nM; on human FPR1, 7.4 nM.
Turning to `COc1cc(F)c([C@@H]2CN(c3ccc4n(c3=O)CCOC4=O)C(=O)[C@H]2NC(=O)c2ccc(OC(F)(F)F)cc2)c(F)c1` [Example 667], the EC50 turned out to be 63 nM on human FPR2 and 7.7 nM at human FPR1.
In the case of `COc1cc(F)c([C@@H]2CN(c3ccc4n(c3=O)CCOC4=O)C(=O)[C@H]2NC(=O)c2ccc(OC(F)F)cc2)c(F)c1` [Example 668], the EC50 was determined as 8.8 nM on human FPR2 and 210 nM on human FPR1.
For `COc1cc(F)c([C@@H]2CN(c3cccn(CC(O)CO)c3=O)C(=O)[C@H]2NC(=O)c2ccc(OC(F)(F)F)cc2)c(F)c1` (some centres unmarked) [Example 669], the values for the EC50 at human FPR2 and on human FPR1 were 11 nM and 270 nM, respectively.
As to `COc1ccc([C@@H]2CN(c3ccnn(CCC(F)(F)F)c3=O)C(=O)[C@H]2NC(=O)c2ccc(OC(F)F)cc2)cc1` [Example 672], the EC50 at human FPR2 was 7.9 nM; on human FPR1, 5 nM.
Regarding `CCn1nccc(N2C[C@@H](c3ccc(OC)cc3)[C@H](NC(=O)c3ccc(OC(F)F)cc3)C2=O)c1=O` [Example 674], the concentration for a half-maximal effect (EC50) is 6.8 nM on human FPR2 and 23 nM on human FPR1.
The like results for `CCn1nccc(N2C[C@@H](c3ccc(OC)cc3)[C@H](NC(=O)c3ccc(OC(F)(F)F)cc3)C2=O)c1=O` [Example 675] were, in that order, 5.5 nM and 5 nM.
On the same counts, the results for `COc1cc(F)c([C@@H]2CN(c3nccc(OCC(C)(C)O)c3C(F)(F)F)C(=O)[C@H]2NC(=O)c2ccc(Cl)cc2)c(F)c1` [Example 676] are 13 nM and 295 nM.
On the same counts, the results for `COc1cc(F)c([C@@H]2CN(c3cccn(CC(O)CO)c3=O)C(=O)[C@H]2NC(=O)c2ccc(Cl)cc2)c(F)c1` (some centres unmarked) [Example 677] are 5.3 nM and 230 nM.
In the case of `COc1cc(F)c([C@@H]2CN(c3cccn(CC(O)CO)c3=O)C(=O)[C@H]2NC(=O)c2ccc(OC(F)F)cc2)c(F)c1` (some centres unmarked) [Example 678], the EC50 came out at 11 nM on human FPR2 and 92 nM at human FPR1.
On the same counts, the results for `COc1cc(F)c([C@@H]2CN(c3cccn(CC(O)CO)c3=O)C(=O)[C@H]2NC(=O)c2ccc(OC(F)(F)F)cc2)c(F)c1` (some centres unmarked) [Example 679] are 6 nM and 28 nM.
On the same counts, the results for `COc1cc(F)c([C@@H]2CN(c3cccn(CC(O)CO)c3=O)C(=O)[C@H]2NC(=O)c2ccc(Cl)cc2)c(F)c1` (some centres unmarked) [Example 680] are 2.8 nM and 780 nM.
On the same counts, the results for `COc1cc(F)c([C@@H]2CN(c3cccn(CC(O)CO)c3=O)C(=O)[C@H]2NC(=O)c2ccc(OC(F)F)cc2)c(F)c1` (some centres unmarked) [Example 681] are 10 nM and 1000 nM.
On to `COc1cc(F)c([C@@H]2CN(c3c(C)ccn(CC(O)C4CC4)c3=O)C(=O)[C@H]2NC(=O)c2ccc(OC(F)F)cc2)c(F)c1` (some centres unmarked) [Example 682], for which the EC50 amounted to 15 nM on human FPR2 and 1 nM at human FPR1.
On the same counts, the results for `COc1cc(F)c([C@@H]2CN(c3c(C)ccn(CC(O)C4CC4)c3=O)C(=O)[C@H]2NC(=O)c2ccc(OC(F)F)cc2)c(F)c1` (some centres unmarked) [Example 685] are 14 nM and 1.4 nM.
For `COc1ccc([C@@H]2CN(c3c(C)ccn(C4CCC4)c3=O)C(=O)[C@H]2NC(=O)c2ccc(OC(F)(F)F)cc2)cc1` [Example 687], the EC50 at human FPR2 was 1.8 nM; on human FPR1, 0.28 nM.
On the same counts, the results for `COc1ccc([C@@H]2CN(c3c(C)ccn(C4CCC4)c3=O)C(=O)[C@H]2NC(=O)c2ccc(OC(F)(F)F)cc2)c(F)c1` [Example 688] are 12 nM and 1.5 nM.
On to `COc1ccc([C@@H]2CN(c3c(C)ccn(C4CCC4)c3=O)C(=O)[C@H]2NC(=O)c2ccc(OC(F)F)cc2)c(F)c1` [Example 689], for which the figures for the EC50 on human FPR2 and on human FPR1 were 4.5 nM and 1.5 nM, respectively.
As to `COc1ccc([C@@H]2CN(c3ccnn(CC(F)F)c3=O)C(=O)[C@H]2NC(=O)c2ccc(Cl)cc2)cc1` [Example 690], the EC50 turned out to be 11 nM on human FPR2 and 24 nM on human FPR1.
The like results for `COc1ccc([C@@H]2CN(c3ccnn(CC(F)F)c3=O)C(=O)[C@H]2NC(=O)c2ccc(OC(F)F)cc2)cc1` [Example 691] were, in that order, 11 nM and 11 nM.
Regarding `COc1ccc([C@@H]2CN(c3ccnn(CC(F)F)c3=O)C(=O)[C@H]2NC(=O)c2ccc(OC(F)(F)F)cc2)cc1` [Example 692], the EC50 at human FPR2 was determined as 3.8 nM; on human FPR1 it was 2.8 nM.
On the same counts, the results for `COc1cc(F)c([C@@H]2CN(c3c(C)ccn(CC4CCOC4)c3=O)C(=O)[C@H]2NC(=O)c2ccc(OC(F)F)cc2)c(F)c1` (some centres unmarked) [Example 693] are 2 nM and 2.5 nM.
As to `COc1cc(F)c([C@@H]2CN(c3c(C)ccn(CC4CCOC4)c3=O)C(=O)[C@H]2NC(=O)c2ccc(OC(F)F)cc2)c(F)c1` (some centres unmarked) [Example 695], the EC50 was 3.5 nM on human FPR2 and 4 nM at human FPR1.
Turning to `COc1ccc([C@@H]2CN(c3ccnn(CC(F)F)c3=O)C(=O)[C@H]2NC(=O)c2ccc(OC(F)(F)F)cc2)c(F)c1` [Example 696], the values for the EC50 on human FPR2 and on human FPR1 were 7.2 nM and 8.3 nM, respectively.
The like results for `COc1cc(F)c([C@@H]2CN(c3c(C)ccn(CC4CCOC4)c3=O)C(=O)[C@H]2NC(=O)c2ccc(OC(F)(F)F)cc2)c(F)c1` (some centres unmarked) [Example 697] were, in that order, 3.6 nM and 6.7 nM.
Turning to `COc1ccc([C@@H]2CN(c3c(C)ccn(CC4CCOCC4)c3=O)C(=O)[C@H]2NC(=O)c2ccc(OC(F)F)cc2)c(F)c1` [Example 698], the concentration for a half-maximal effect (EC50) at human FPR2 came to 5.7 nM; on human FPR1 it was 2.5 nM.
On the same counts, the results for `COc1ccc([C@@H]2CN(c3c(C)ccn(CC4CCOCC4)c3=O)C(=O)[C@H]2NC(=O)c2ccc(OC(F)F)cc2)cc1` [Example 699] are 6.6 nM and 3 nM.
As for `COc1ccc([C@@H]2CN(c3c(C)ccn(CC4CCOCC4)c3=O)C(=O)[C@H]2NC(=O)c2ccc(OC(F)(F)F)cc2)cc1` [Example 700], the half-maximal effective concentration (EC50) at human FPR2 amounted to 3 nM; on human FPR1, 0.67 nM.
The like results for `COc1cc(F)c([C@@H]2CN(c3c(C)ccn(C4CCS(=O)(=O)C4)c3=O)C(=O)[C@H]2NC(=O)c2ccc(OC(F)F)cc2)c(F)c1` (some centres unmarked) [Example 701] were, in that order, 12 nM and 27 nM.
For `COc1cc(F)c([C@@H]2CN(c3c(C)ccn(C4CCS(=O)(=O)C4)c3=O)C(=O)[C@H]2NC(=O)c2ccc(OC(F)(F)F)cc2)c(F)c1` (some centres unmarked) [Example 702], the EC50 on human FPR2 came to 8.5 nM; at human FPR1, 7.5 nM.
On the same counts, the results for `COc1cc(F)c([C@@H]2CN(c3ccc(C(=O)O)n(CCO)c3=O)C(=O)[C@H]2NC(=O)c2ccc(OC(F)(F)F)cc2)c(F)c1` [Example 703] are 57 nM and 99 nM.
The like results for `COc1ccc([C@@H]2CN(c3c(C)ccn(C4CCOC4)c3=O)C(=O)[C@H]2NC(=O)c2ccc(OC(F)(F)F)cc2)cc1` (some centres unmarked) [Example 704] were, in that order, 2.4 nM and 1 nM.
As to `COCC(CO)n1cccc(N2C[C@@H](c3ccc(OC)cc3F)[C@H](NC(=O)c3ccc(OC(F)(F)F)cc3)C2=O)c1=O` (some centres unmarked) [Example 705], the half-maximal effective concentration (EC50) worked out at 0.6 nM on human FPR2 and 3.9 nM on human FPR1.
